Measured values reported in PubChem BioAssay AID179 (DTP/NCI, 2004).
Values joined by “and” are separate entries in the source; they are usually repeats but may differ in a detail not shown here. Identical values can stand only once. Active and inactive are the calls of the source.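 The calls were made as follows: active = compounds giving half or more protection of infected cells from virus-caused growth loss, again on retest; inactive = the rest.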 Where a SMILES comes first, the peptide text is derived from it. [ ]: non-standard residue; d: D form. The star is where a group is joined. ξ: configuration not given here. ξD = NC(CC(=O)O)C(=O)O; Boc = CC(C)(C)OC(=O)*; Aib = CC(C)(N)C(=O)O; OtBu = CC(C)(C)O*

Tested on: CEM cells HIV-1 protection, formazan growth assay
Test: NCI AIDS Antiviral Assay
Conditions: for IC50: measured here: growth of uninfected CEM cells
Outline: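 Soluble formazan readout of cell growth; CEM cells ± HIV-1; 5 drug concs. ≥50% protection → retest; ≥50% again = moderately active; reproducible 100% = confirmed active.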

Row | Structure (SMILES) | EC50 | IC50 | outcome
1 | COC(=O)c1ccc(Nc2nc3nc[nH]c3c(=O)[nH]2)cc1 | > 200 µM | 42.7 µM | –
2 | CP1(=O)CC(=O)CCCCC(=O)C1 | – | – | inactive
3 | OCC(O)C1OCOC2COCOC21 (stereo not drawn) | > 200 µM | > 200 µM | –
4 | Cc1cn2cc(-c3ccncc3)nc2s1 | > 209 µM | 112 µM | –
5 | CN1CCN(C(=S)N(C(=O)c2ccc(Cl)cc2)c2ccccc2)CC1 | > 13.8 µM | > 13.8 µM | –
6 | CCOC(=O)c1sc2nc(CN3CCOCC3)[nH]c(=O)c2c1C | > 77.6 µM | > 77.6 µM | –
7 | Cn1c(=O)n(-c2c3ccccc3c(Cl)c3ccccc23)n(C(C)(C)C)c1=O | > 100 µM | > 100 µM | –
8 | O=C(O)c1nn(-c2ccccn2)c(O)c1N=Nc1ccc(/C=C\c2ccc(N=Nc3c(C(=O)O)nn(-c4ccccn4)c3O)cc2S(=O)(=O)O)c(S(=O)(=O)O)c1 | > 1.48 µM | > 1.48 µM | –
9 | COC(=O)C(C)(C)NC(=O)C(C)(C)NC(=O)C(CC(=O)OC(C)(C)C)NC(=O)OC(C)(C)C (stereo not drawn) (Boc-[ξD](OtBu)-[Aib]-[Aib]-OMe) | > 200 µM | > 200 µM | –
10 | CC(CC(=O)N(C)[C@H](C[C@@H](C)C(Cl)(Cl)Cl)c1nccs1)C(Cl)(Cl)Cl (stereo partly drawn) | – | – | inactive
11 | COc1ccc(C2Oc3ccc(Cl)cc3C=C2[N+](=O)[O-])cc1OC (stereo not drawn) | > 2 µM | 0.724 µM | –
12 | CC[C@]12CN3CCc4c([nH]c5ccccc45)[C@@](C(=O)OC)(c4cc5c(cc4OC)N(C)[C@H]4[C@@](O)(C(=O)OC)[C@H](OC(C)=O)[C@]6(CC)C=CCN7CC[C@]54[C@@H]76)CC(C3)[C@H]1O2 (stereo partly drawn) | > 2 µM | 0.141 µM and 0.0447 µM | –
13 | COc1ccc2cc1Oc1ccc(cc1)C[C@H]1c3cc(c(OC)cc3CCN1C)Oc1c(O)c(OC)cc3c1[C@H](C2)N(C)CC3 | – | – | inactive
14 | Cc1cc(Cl)ccc1NC(=O)C1C(=O)C(=O)N(c2ccc(Cl)cc2C)C1=O (stereo not drawn) | – | – | inactive
15 | CCCCCCCCCCCCCCCC(=O)Nc1ccn(C2CC(OP(=O)(O)OCC3OC(n4cc(C)c(=O)[nH]c4=O)CC3N=[N+]=[N-])C(CO)O2)c(=O)n1 (stereo not drawn) | 0.813 µM | > 100 µM | –
16 | COC(=O)CCN1c2ccccc2Sc2ccccc21 | > 66.1 µM | > 66.1 µM | –
17 | COC(=O)/C(=N\NC(N)=S)C(C(=O)OC)C(=O)C(=O)Nc1ccc(C)cc1 (stereo not drawn) | > 66.1 µM | > 66.1 µM | –
18 | COC(=O)[C@H](CCCN=C(N)N)NC(=O)CCCCCCCCCCNC(=O)c1cc(CNC2=NCCN2)cc(CNC2=NCCN2)c1 | > 100 µM | > 100 µM | –
19 | COC(=O)C(C(=O)C(=O)Nc1ccc(C(F)(F)F)cc1[N+](=O)[O-])c1csc(-n2nc(-c3ccccc3)cc2-c2ccccc2)n1 (stereo not drawn) | > 53.7 µM | 39.8 µM | –
20 | COc1nc2c(nnn2C2OC(CO)C(O)C(O)C2O)c(=O)n1C (stereo not drawn) | – | – | inactive

Row | Structure (SMILES) | EC50 | IC50 | outcome
21 | CN(C)c1ccc(C(=C2C=CC(=[N+](C)C)C=C2)c2ccc(N(C)C)cc2)cc1 | – | – | inactive
22 | c1c2c(cc(-n3nnc4c3CCCCCC4)c1-n1nnc3c1CCCCCC3)CCCCCC2 | > 21.9 µM | > 21.9 µM | –
23 | CCCCC1C(=O)N2C=C(c3ccccc3)c3ccccc3N2C1=O (stereo not drawn) | > 100 µM | 60.3 µM | –
24 | COC(=O)CCC(=O)N1Cc2cc(C)ccc2N(C(=O)CCC(=O)OC)Cc2cc(C)ccc21 | – | – | inactive
25 | Brc1ccccc1C1SCc2nc3ccccc3n21 (stereo not drawn) | – | – | inactive
26 | Cc1ccc2nc(-c3ccccc3)c(N=O)n2c1 | > 200 µM | 170 µM | –
27 | CC(=O)Nc1ccc(OC(C)(C)C)cc1 | > 1200 µM | > 1200 µM | –
28 | O=P(O)(Cc1ccccc1)OCC1(O)OCC(O)C(O)C1O (stereo not drawn) | > 200 µM | > 200 µM | –
29 | Cc1c(NC=C(C#N)C#N)c(=O)n(-c2ccccc2)n1C | > 200 µM | > 200 µM | –
30 | CN(NC(=O)/C(=C/c1ccc(Cl)cc1)NC(=O)c1ccccc1)c1cn[nH]c(=O)c1Cl | > 200 µM | 6.92 µM | –
31 | Cc1cn([C@H]2C[C@@H]3[C@@H](COC(CCCC[Se]c4ccccc4)N3O)O2)c(=O)[nH]c1=O (stereo partly drawn) | 14.8 µM | 105 µM | –
32 | CC1=CC2=C(C#N)C(=O)OC2(C)C(c2ccccc2)C1 (stereo not drawn) | > 200 µM | 117 µM | –
33 | O=C(C[n+]1ccccc1)N=N/C(C(=O)Nc1c(Cl)c(O)c2ccccc2c1O)=C1/C(=O)Oc2cc(O)ccc2C1=O | > 22.4 µM | 12 µM | –
34 | COc1ccc(NC(=O)CC(=O)NN2C(=O)/C(=C/c3ccc(N(CCC#N)CCC#N)cc3C)N=C2/C=C\c2ccccc2)cc1 | – | – | inactive
35 | C[C@]12Cc3conc3C(O)=C1CC[C@@H]1C2CC[C@@]2(C)C1CC[C@]2(C)O (stereo partly drawn) | – | – | inactive
36 | COC(=O)C1c2c(C)cc3n2C(C=C(C)C3)C1C(=O)OC (stereo not drawn) | 75.9 µM | 107 µM | –
37 | [N-]=[N+]=CC(=O)OC1CCOCC1 | > 200 µM | > 200 µM | –
38 | CCCc1cc(=O)oc2c3c(cc(OC(C)C)c12)O[C@H](C)[C@@H](C)/C3=N/O | > 200 µM | 3.8 µM | –
39 | C=C1C(=O)OC2/C=C(\C)C3OC3/C=C(/C(=O)OC)C(O)C(OC(=O)C3(C)OC3C)C12 (stereo not drawn) | > 120 µM | 0.302 µM | –
40 | [N-]=[N+]=NCC(O)Cn1cnc2c(NC(=O)c3ccccc3)ncnc21 (stereo not drawn) | > 741 µM | 427 µM | –

Row | Structure (SMILES) | EC50 | IC50 | outcome
41 | CC(=O)Nc1ccc(NNc2cc(=O)n(C)c(=O)[nH]2)cc1 | > 200 µM | 2.4 µM | –
42 | CCN(CC)C1CCC(C2c3cc4c(cc3OC(N3CCOCC3)C2C)OCO4)CC1 (stereo not drawn) | > 100 µM | 5.89 µM | –
43 | O=C1C(NS(=O)(=O)c2ccccc2)=C(n2ccnc2)C(=O)c2ccccc21 | > 200 µM | 91.2 µM | –
44 | O=C1NC(=Nc2ccccc2)C(=Nc2ccccc2)N1c1ccccc1 | > 200 µM | 14.8 µM | –
45 | Cc1cn(C2CC(N(O)C3C4CC5CC(C4)CC3C5)C(CO)O2)c(=O)[nH]c1=O (stereo not drawn) | > 200 µM | 120 µM | –
46 | O/N=C1/CCC/C1=C\c1ccccc1 | – | – | inactive
47 | O=C(O)c1cc(O)c2c(=O)c3c(O)cc(O)c4c5c(O)cc(O)c6c(=O)c7c(O)cc(C(=O)O)c8c1c2c(c34)c(c65)c78 | – | – | inactive
48 | COc1ccc(NC(=O)/C(CC2=Nc3ccc([N+](=O)[O-])cc3NC2O)=N\NC(=O)C[N+](C)(C)C)c(OC)c1 (stereo not drawn) | > 45.7 µM | > 45.7 µM | –
49 | O=C(O)c1cc(-c2ccccc2)c(-c2ccccc2)cc1C(c1ccccc1)c1ccccc1 | > 200 µM | 28.2 µM | –
50 | CC(C)=CCC/C(C)=C/CN1Cc2cccc3[nH]c(=S)n(c23)CC1C (stereo not drawn) | > 18.2 µM | – | –
51 | Cc1cc(S(=O)(=O)Nc2n[nH]c(-c3ccc(Cl)cn3)n2)c(S)cc1Cl | > 148 µM | 123 µM | –
52 | O=C(O)c1nn(-c2ccccc2)nc1-c1nn(-c2ccccc2)nc1C(=O)O | > 200 µM | > 200 µM | –
53 | O=C(O)c1ccc2[nH]c(=O)oc2c1 | > 200 µM | > 200 µM | –
54 | Cc1cccc(C)c1N1C(=O)C(=O)C(c2nc3ccccc3s2)/C(=N/NC(=O)NN)C1=O (stereo not drawn) | – | – | inactive
55 | Nc1ccc(-c2ccc(N)c(S(=O)(=O)O)c2)cc1S(=O)(=O)O | > 724 µM | > 724 µM | –
56 | COc1cccc(Nc2nc(N)nc(N)c2N)c1 | > 200 µM | 26.3 µM | –
57 | CCOC(=O)C(O)(NC(=O)Nc1ccc(F)cc1)C(F)(F)F (stereo not drawn) | > 200 µM | > 200 µM | –
58 | ClC(c1ccccc1)(c1ccccc1)c1cccc(-c2cccc(C(Cl)(c3ccccc3)c3ccccc3)c2)c1 | – | – | inactive
59 | Nc1nnnn1NC(=O)NCCCl | > 200 µM | > 200 µM | –
